From ChEMBL document CHEMBL2016438, “Design and synthesis of naphthoquinone derivatives as antiproliferative agents and 20S proteasome inhibitors” (Bioorg Med Chem Lett, 2012)
pIC50: −log10 of the molar value. Calls of active or inactive are those of the source. The calls are words filed in the database; no cut-off is given here.

Assays:
DU-145 [1] = test: Antiproliferative activity against human DU145 cells at 10 ug/ml; assay type: functional, cell-based
KBVIN = test: Antiproliferative activity against human KBVIN cells at 10 ug/ml; assay type: functional, cell-based
KB [2] = test: Antiproliferative activity against human KB cells at 10 ug/ml; assay type: functional, cell-based
A549 [3] = test: Antiproliferative activity against human A549 cells at 10 ug/ml; assay type: functional, cell-based
[4] = Antiproliferative activity against human KBVIN cells; assay type: functional, cell-based
A549 [5] = test: Antiproliferative activity against human A549 cells; assay type: functional, cell-based
HeLa-GFP = test: Inhibition of proteasome in human HeLa-GFP cells at 10 ug/ml
DU-145 [6] = test: Antiproliferative activity against human DU145 cells; assay type: functional, cell-based
KB [7] = test: Antiproliferative activity against human KB cells; assay type: functional, cell-based
[8] = Inhibition of chymotrypsin-like activity of human 20s proteasome

pIC50 (A549 [5])	inhibition (HeLa-GFP)	pIC50 (DU-145 [6])	pIC50 (KB [7])	pIC50 [8]	SMILES	inhibition (DU-145 [1])	inhibition (KBVIN)	inhibition (KB [2])	inhibition (A549 [3])	pIC50 [4]
4.90	inactive	4.86	4.85	–	O=C1C(Cl)=C(Nc2ccc(C(=O)N3CCOCC3)cc2)C(=O)c2ccccc21	–	–	–	–	4.84
5.02	inactive	4.98	4.98	–	COc1cc(NC(=O)c2ccc(NC3=C(Cl)C(=O)c4ccccc4C3=O)cc2)cc(OC)c1	–	–	–	–	4.95
4.73	inactive	4.80	4.89	–	O=C1C(Cl)=C(Nc2ccc(N3CCOCC3)cc2)C(=O)c2ccccc21	–	–	–	–	4.85
–	–	–	–	5.00	CC(=O)N[C@@H](CSC(=O)[C@]1([C@@H](O)C(C)C)NC(=O)[C@H](C)[C@@H]1O)C(=O)O [LACTACYSTIN]	–	–	–	–	–
4.69	inactive	4.74	4.79	–	O=C1C(Cl)=C(NCCCN2CCCC2=O)C(=O)c2ccccc21	–	–	–	–	4.72
4.91	inactive	4.97	5.02	4.73	O=C1C(Cl)=C(Nc2ccc(S(=O)(=O)Nc3ccccn3)cc2)C(=O)c2ccccc21	–	–	–	–	4.93
5.54	inactive	5.34	5.09	–	O=C1C(Cl)=C(Nc2ccc(Oc3ccccc3)cc2)C(=O)c2ccccc21	–	–	–	–	5.89
4.63	Active	4.74	4.78	5.44	O=C1C(Cl)=C(Nc2ccc([N+](=O)[O-])cc2)C(=O)c2ccccc21	–	–	–	–	4.74

Further lines, the compound ahead of its results:

SMILES	pIC50 (A549 [5])	inhibition (HeLa-GFP)	pIC50 (DU-145 [6])	pIC50 (KB [7])	pIC50 [8]	inhibition (DU-145 [1])	inhibition (KBVIN)	inhibition (KB [2])	inhibition (A549 [3])	pIC50 [4]
O=C1C(Cl)=C(NCCc2cccs2)C(=O)c2ccccc21	–	–	–	–	–	inactive	inactive	inactive	inactive	–
O=C1C(Cl)=C(Nc2ccc3c(c2)OCO3)C(=O)c2ccccc21	–	–	–	–	–	inactive	inactive	inactive	inactive	–
COc1ccc(CC(=O)Nc2ccc(NC3=C(Cl)C(=O)c4ccccc4C3=O)cc2)cc1	–	–	–	–	–	inactive	inactive	inactive	inactive	–
O=C(Nc1ccccn1)c1ccc(NC2=C(Cl)C(=O)c3ccccc3C2=O)cc1	–	–	–	–	–	inactive	inactive	inactive	inactive	–
O=C(Nc1ccc(NC2=C(Cl)C(=O)c3ccccc3C2=O)cc1)c1ccccn1	–	–	–	–	–	inactive	inactive	inactive	inactive	–
O=C1C(Cl)=C(NCCN2CCOCC2)C(=O)c2ccccc21	–	–	–	–	–	inactive	inactive	inactive	inactive	–
COc1ccc(C(=O)Nc2ccc(NC3=C(Cl)C(=O)c4ccccc4C3=O)cc2)cc1	–	–	–	–	–	inactive	inactive	inactive	inactive	–
O=C(NCCc1ccccc1)c1ccc(NC2=C(Cl)C(=O)c3ccccc3C2=O)cc1	–	–	–	–	–	inactive	inactive	inactive	inactive	–
